# Test results taken from patent US9469650B2, “Melampomagnolide B derivatives” (BOARD OF TRUSTEES OF THE UNIVERSITY OF ARKANSAS, priority 2013, dated 2016).
# Where two headings read alike, the source gives them in different places.
# Experiments:
# OVCAR-4 = assay: panel of 60 human tumor cell lines, growth inhibition (Ovarian Cancer); assay type: cell-based; conditions: for GI50 / IC (TGI) / CC50: Homo sapiens; for CC50: read-out: LC50 (the source's name)
# [1] = tested on: panel of 60 human tumor cell lines; assay: panel of 60 human tumor cell lines, whole panel or sub-panel (single concentration screen, summaries); assay type: cell-based; conditions: for inhibition at 10 µM: single concentration of 10^−5 M, read-out: growth inhibition in at least eight human cancer cell lines from the panel; for GI50: range over 6a and 6e
# HL-60(TB) = assay: cells; conditions: Homo sapiens; for GI50: HL-60; for CC50: HL-60, read-out: LC50; for IC (TGI): HL-60, read-out: TGI
# MALME-3M = assay: panel of 60 human tumor cell lines, growth inhibition (Melanoma); conditions: for GI50 / CC50: Homo sapiens, Malme-3M; for CC50: read-out: LC50; for Percent Growth / TGI: MALME-3M
# Source text for AML 052308 cells: Derivatives were screened for antileukemic activity against AML cells in culture (See FIGS. 1-7).
SMILES,GI50 (OVCAR-4; OVCAR-4),IC (TGI) (OVCAR-4; OVCAR-4),CC50 (OVCAR-4; OVCAR-4),inhibition at 10 µM [1],GI50 (HL-60(TB)),CC50 (HL-60(TB)),IC (TGI) (HL-60(TB)),"GI50 (OVCAR-4; OVCAR-4, NCI five dose)","IC (TGI) (OVCAR-4; OVCAR-4, NCI five dose)","CC50 (OVCAR-4; OVCAR-4, NCI five dose)",GI50 (MALME-3M),CC50 (MALME-3M),Percent Growth (MALME-3M; Log10 Concentration −4.0),Percent Growth (MALME-3M; Log10 Concentration −5.0),Percent Growth (MALME-3M; Log10 Concentration −6.0),Percent Growth (MALME-3M; Log10 Concentration −7.0),Percent Growth (MALME-3M; Log10 Concentration −8.0),cytotoxicity compared to MMB (AML 052308 cells),fold more cytotoxic than MMB (AML 052308 cells),also measured
C=C1C(=O)O[C@H]2[C@H]1CC/C(COC(=O)CCC(=O)NCc1ccc(Cl)nc1)=C\CC[C@@]1(C)O[C@@H]21 [JVM 96],10.1 µM,23.6 µM,55.2 µM,> 60%,2.12 µM,> 100 µM,8.75 µM,,,,,,,,,,,,,"Percent Growth (OVCAR-4; OVCAR-4, Log10 Concentration −4.0): −85%; Percent Growth (OVCAR-4; OVCAR-4, Log10 Concentration −5.0): 51%; Percent Growth (OVCAR-4; OVCAR-4, Log10 Concentration −6.0): 87%; Percent Growth (OVCAR-4; OVCAR-4, Log10 Concentration −7.0): 90%; Percent Growth (OVCAR-4; OVCAR-4, Log10 Concentration −8.0): 96%"
"C=C1C(=O)O[C@H]2[C@H]1CC/C(COC(=O)Nc1n[nH]c(SC)n1)=C\CC[C@@]1(C)O[C@@H]21 [JVM 64, ((1aR,7aS,10aS,10bS,E)-1a-methyl-8-methylene-9-oxo-1a,2,3,6,7,7a,8,9,10a,10b-decahydrooxireno[2′,3′:9,10]cyclodeca[1,2-b]furan-5-yl)methyl-(5-(methylthio)-1H-1,2,4-triazol-3-yl)carbamate]",,,,> 60%,,,,3.28 µM,19.3 µM,62.4 µM,2.32 µM,78.8 µM,−54%,−12%,66%,99%,104%,more potent than MMB,3 fold,GI50 ([1]; sub-panel breast cancer): 0.57 to 3.07 µM; GI50 ([1]; sub-panel colon cancer): 1.12 to 2.06 µM; GI50 ([1]; sub-panel melanoma): 0.46 to 2.84 µM; GI50 ([1]; sub-panel non-small cell lung cancer): 0.65 to 1.45 µM; GI50 ([1]; sub-panel renal cancer): 0.9 to 2.6 µM; TGI (MALME-3M; NCI five dose): 7.53E−6
"C=C1C(=O)O[C@H]2[C@H]1CC/C(COC(=O)NCCN1CCCC1)=C\CC[C@@]1(C)O[C@@H]21 [JVM 59, ((1aR,7aS,10aS,10bS,E)-1a-methyl-8-methylene-9-oxo-1a,2,3,6,7,7a,8,9,10a,10b-decahydrooxireno[2′,3′:9,10]cyclodeca[1,2-b]furan-5-yl)methyl-(2-(pyrrolidin-1-yl)ethyl)carbamate]",,,,> 60%,4.15 µM,70.3 µM,18.3 µM,,,,4.18 µM,55.2 µM,−74%,18%,102%,93%,91%,almost equal cytotoxicity to MMB,,"GI50 (OVCAR-4; OVCAR-4, five dose): 10.4 µM; IC (TGI) (OVCAR-4; OVCAR-4, five dose): 24.7 µM; CC50 (OVCAR-4; OVCAR-4, five dose): 58.5 µM; TGI (MALME-3M; five dose): 1.59E−5"
C=C1C(=O)O[C@H]2[C@H]1CC/C(COC(=O)OC)=C\CC[C@@]1(C)O[C@@H]21 [JVM 2-40],,,,> 60%,1.69 µM,76.3 µM,7.15 µM,3.76 µM,18.7 µM,64.1 µM,,,,,,,,,,
C=C1C(=O)O[C@H]2[C@H]1CC/C(COC(=O)OCCCN1CCCCC1)=C\CC[C@@]1(C)O[C@@H]21 [JVM 2-26],2.13 µM,11.6 µM,38.6 µM,> 60%,1.88 µM,98.7 µM,7.53 µM,,,,,,,,,,,more potent than MMB,3 fold,
